# Data: US20170173002A1, “Compositions and Methods for Treating an Infection” (CMPD LICENSING, LLC, priority 2015, published 2017)
# How the values were obtained:
# [1] = system: Aspergillus flavus; assay: Expected efficacy of antifungal agents; settings: expected efficacy against Aspergillus flavus
# [2] = system: Aspergillus fumigatus; assay: Expected efficacy of antifungal agents; settings: expected efficacy against Aspergillus fumigatus
# [3] = system: Aspergillus niger; assay: Expected efficacy of antifungal agents; settings: expected efficacy against Aspergillus niger
# [4] = system: Aspergillus terreus; assay: Expected efficacy of antifungal agents; settings: expected efficacy against Aspergillus terreus
# [5] = system: Blastomyces dermatitidis; assay: Expected efficacy of antifungal agents; settings: expected efficacy against Blastomyces dermatitidis
# [6] = system: Candida species; assay: Expected efficacy of antifungal agents; settings: expected efficacy against Candida species
# [7] = system: Coccidioides immitis; settings: expected efficacy against Coccidioides immitis
# [8] = system: Cryptococcus neoformans; assay: Expected efficacy of antifungal agents; settings: expected efficacy against Cryptococcus neoformans
# [9] = system: Histoplasma capsulatum; settings: expected efficacy against Histoplasma capsulatum
# [10] = system: Leishmania donovani; assay: Expected efficacy of antifungal agents; settings: expected efficacy against Leishmania donovani
# [11] = system: Leishmania infantum; assay: Expected efficacy of antifungal agents; settings: expected efficacy against Leishmania infantum
# [12] = system: Paracoccidioides brasiliensis; assay: Expected efficacy of antifungal agents; settings: expected efficacy against Paracoccidioides brasiliensis
# [13] = system: gram-positive staphylococci and streptococci; settings: background description of the drug; cited from earlier work
# [14] = system: Bacteroides fragilis; assay: Expected efficacy of antibiotic agents; settings: expected efficacy against Bacteroides fragilis
# [15] = system: Clostridium difficile; assay: Expected efficacy of antibiotic agents; settings: expected efficacy against Clostridium difficile
# [16] = system: Clostridium perfringens
# [17] = system: Chlamydia pneumoniae; assay: Expected efficacy of antibiotic agents; settings: expected efficacy against Chlamydia pneumoniae
# [18] = system: Chlamydia psittaci
# [19] = system: Chlamydia trachomatis; assay: Expected efficacy of antibiotic agents; settings: expected efficacy against Chlamydia trachomatis
# [20] = system: Mycoplasma pneumoniae; assay: Expected efficacy of antibiotic agents; settings: expected efficacy against Mycoplasma pneumoniae
# [21] = system: Acinetobacter baumannii; assay: Expected efficacy of antibiotic agents; settings: expected efficacy against Acinetobacter baumannii
# [22] = system: Acinetobacter calcoaceticus; assay: Expected efficacy of antibiotic agents; settings: expected efficacy against Acinetobacter calcoaceticus
# [23] = system: Acinetobacter lwoffii; assay: Expected efficacy of antibiotic agents; settings: expected efficacy against Acinetobacter lwoffii
# [24] = system: Bartonella bacilliformis; assay: Expected efficacy of antibiotic agents; settings: expected efficacy against Bartonella bacilliformis
# [25] = system: Bordetella pertussis; assay: Expected efficacy of antibiotic agents; settings: expected efficacy against Bordetella pertussis
# [26] = system: Brucella species
# [27] = system: Campylobacter jejuni; assay: Expected efficacy of antibiotic agents; settings: expected efficacy against Campylobacter jejuni
# [28] = system: Citrobacter diversus; assay: Expected efficacy of antibiotic agents; settings: expected efficacy against Citrobacter diversus
# [29] = system: Citrobacter freundii; assay: Expected efficacy of antibiotic agents; settings: expected efficacy against Citrobacter freundii
# [30] = system: Enterobacter aerogenes; assay: Expected efficacy of antibiotic agents; settings: expected efficacy against Enterobacter aerogenes
# [31] = system: Enterobacter cloacae; assay: Expected efficacy of antibiotic agents; settings: expected efficacy against Enterobacter cloacae
# [32] = system: Enterobacter sakazakii; assay: Expected efficacy of antibiotic agents; settings: expected efficacy against Enterobacter sakazakii
# [33] = system: Escherichia coli; assay: Expected efficacy of antibiotic agents; settings: expected efficacy against Escherichia coli
# [34] = system: Francisella tularensis
# [35] = system: Haemophilus ducreyi; assay: Expected efficacy of antibiotic agents; settings: expected efficacy against Haemophilus ducreyi
# [36] = system: Haemophilus influenzae; assay: Expected efficacy of antibiotic agents; settings: expected efficacy against Haemophilus influenzae
# [37] = system: Haemophilus parainfluenzae; assay: Expected efficacy of antibiotic agents; settings: expected efficacy against Haemophilus parainfluenzae
# [38] = system: Klebsiella (Calymmatobacterium) granulomatis; assay: Expected efficacy of antibiotic agents; settings: expected efficacy against Klebsiella (Calymmatobacterium) granulomatis
# [39] = system: Klebsiella oxytoca; assay: Expected efficacy of antibiotic agents; settings: expected efficacy against Klebsiella oxytoca
# [40] = system: Klebsiella pneumoniae; assay: Expected efficacy of antibiotic agents; settings: expected efficacy against Klebsiella pneumoniae
# [41] = system: Legionella pneumophila
# [42] = system: Moraxella catarrhalis; assay: Expected efficacy of antibiotic agents; settings: expected efficacy against Moraxella catarrhalis
# [43] = system: Morganella morganii; assay: Expected efficacy of antibiotic agents; settings: expected efficacy against Morganella morganii
# [44] = system: Neisseria gonorrhoeae; assay: Expected efficacy of antibiotic agents; settings: expected efficacy against Neisseria gonorrhoeae
# [45] = system: Neisseria meningitidis; assay: Expected efficacy of antibiotic agents; settings: expected efficacy against Neisseria meningitidis
# [46] = system: Proteus mirabilis; assay: Expected efficacy of antibiotic agents; settings: expected efficacy against Proteus mirabilis
# [47] = system: Proteus vulgaris; assay: Expected efficacy of antibiotic agents; settings: expected efficacy against Proteus vulgaris
# [48] = system: Providencia rettgeri; assay: Expected efficacy of antibiotic agents; settings: expected efficacy against Providencia rettgeri
# [49] = system: Providencia stuartii; assay: Expected efficacy of antibiotic agents; settings: expected efficacy against Providencia stuartii
# [50] = system: Pseudomonas aeruginosa; assay: Expected efficacy of antibiotic agents; settings: expected efficacy against Pseudomonas aeruginosa
# [51] = system: Pseudomonas fluorescens; assay: Expected efficacy of antibiotic agents; settings: expected efficacy against Pseudomonas fluorescens
# [52] = system: Rickettsiae
# [53] = system: Salmonella typhi; assay: Expected efficacy of antibiotic agents; settings: expected efficacy against Salmonella typhi
# [54] = system: Serratia marcescens; assay: Expected efficacy of antibiotic agents; settings: expected efficacy against Serratia marcescens
# [55] = system: Shigella boydii; assay: Expected efficacy of antibiotic agents; settings: expected efficacy against Shigella boydii
# [56] = system: Shigella dysenteriae; assay: Expected efficacy of antibiotic agents; settings: expected efficacy against Shigella dysenteriae
# [57] = system: Shigella flexneri; assay: Expected efficacy of antibiotic agents; settings: expected efficacy against Shigella flexneri
# [58] = system: Shigella sonnei; assay: Expected efficacy of antibiotic agents; settings: expected efficacy against Shigella sonnei
# [59] = system: Vibrio cholerae; assay: Expected efficacy of antibiotic agents; settings: expected efficacy against Vibrio cholerae
# [60] = system: Yersinia pestis
# [61] = system: Corynebacterium jeikeium; assay: Expected efficacy of antibiotic agents; settings: expected efficacy against Corynebacterium jeikeium
# [62] = system: Corynebacterium urealyticum; assay: Expected efficacy of antibiotic agents; settings: expected efficacy against Corynebacterium urealyticum
# [63] = system: Diphtheroids; assay: Expected efficacy of antibiotic agents; settings: expected efficacy against Diphtheroids
# [64] = system: Enterococcus faecalis; assay: Expected efficacy of antibiotic agents; settings: expected efficacy against Enterococcus faecalis
# [65] = system: Enterococcus faecium; assay: Expected efficacy of antibiotic agents; settings: expected efficacy against Enterococcus faecium
# [66] = system: Methicillin resistant staph aureus (MRSA); assay: Expected efficacy of antibiotic agents; settings: expected efficacy against Methicillin resistant staph aureus (MRSA)
# [67] = system: Peptostreptococcus; assay: Expected efficacy of antibiotic agents; settings: expected efficacy against Peptostreptococcus
# [68] = system: Staphylococcus aureus (MSSA); assay: Expected efficacy of antibiotic agents; settings: expected efficacy against Staphylococcus aureus (MSSA)
# [69] = system: Staphylococcus epidermidis; assay: Expected efficacy of antibiotic agents; settings: expected efficacy against Staphylococcus epidermidis
# [70] = system: Streptococcus agalactiae; assay: Expected efficacy of antibiotic agents; settings: expected efficacy against Streptococcus agalactiae
# [71] = system: Streptococcus pneumoniae; assay: Expected efficacy of antibiotic agents; settings: expected efficacy against Streptococcus pneumoniae
# [72] = system: Streptococcus pyogenes; assay: Expected efficacy of antibiotic agents; settings: expected efficacy against Streptococcus pyogenes
# [73] = system: Viridans group streptococci; assay: Expected efficacy of antibiotic agents; settings: expected efficacy against Viridans group streptococci
# [74] = system: Fusarium species; assay: Expected efficacy of antifungal agents; settings: expected efficacy against Fusarium species
# [75] = system: Scedosporium apiospermum; assay: Expected efficacy of antifungal agents; settings: expected efficacy against Scedosporium apiospermum
smiles,measurement,setting,value
"C[C@@H]1[C@H](O)[C@@H](C)/C=C/C=C/C=C/C=C/C=C/C=C/C=C/[C@H](O[C@@H]2O[C@H](C)[C@@H](O)[C@H](N)[C@@H]2O)C[C@@H]2O[C@](O)(C[C@@H](O)C[C@@H](O)[C@H](O)CC[C@@H](O)C[C@@H](O)CC(=O)O[C@H]1C)C[C@H](O)[C@H]2C(=O)O [Amphotericin, amphotericin b]",Efficacy,[1],yes
same,Efficacy,[2],yes
same,Efficacy,[3],yes
same,Efficacy,[4],yes
same,Efficacy,[5],yes
same,Efficacy,[6],yes
same,Efficacy,[7],yes
same,Efficacy,[8],yes
same,Efficacy,[9],yes
same,Efficacy,[10],yes
same,Efficacy,[11],yes
same,Efficacy,[12],yes
OC(Cn1cncn1)(Cn1cncn1)c1ccc(F)cc1F [Fluconazole],Efficacy,[1],yes
same,Efficacy,[2],yes
same,Efficacy,[5],yes
same,Efficacy,[6],yes
same,Efficacy,[7],yes
same,Efficacy,[8],yes
same,Efficacy,[9],yes
C/C(=C\C(=O)OCCCCCCCCC(=O)O)C[C@@H]1OC[C@H](C[C@@H]2O[C@H]2[C@@H](C)[C@@H](C)O)[C@@H](O)C1O (stereo partly drawn) [Mupirocin],activity against gram-positive staphylococci and streptococci,[13],excellent activity
CN[C@H](CC(C)C)C(=O)N[C@H]1C(=O)N[C@@H](CC(N)=O)C(=O)N[C@H]2C(=O)N[C@H]3C(=O)N[C@H](C(=O)N[C@H](C(=O)O)c4cc(O)cc(O)c4-c4cc3ccc4O)[C@H](O)c3ccc(c(Cl)c3)Oc3cc2cc(c3O[C@@H]2O[C@H](CO)[C@@H](O)[C@H](O)[C@H]2O[C@H]2C[C@](C)(N)[C@H](O)[C@H](C)O2)Oc2ccc(cc2Cl)[C@H]1O [Vancomycin],Efficacy,[14],no
same,Efficacy,[15],yes
same,Efficacy,[16],no
same,Efficacy,[17],no
same,Efficacy,[18],no
same,Efficacy,[19],no
same,Efficacy,[20],no
same,Efficacy,[21],no
same,Efficacy,[22],no
same,Efficacy,[23],no
same,Efficacy,[24],no
same,Efficacy,[25],no
same,Efficacy,[26],no
same,Efficacy,[27],no
same,Efficacy,[28],no
same,Efficacy,[29],no
same,Efficacy,[30],no
same,Efficacy,[31],no
same,Efficacy,[32],no
same,Efficacy,[33],no
same,Efficacy,[34],no
same,Efficacy,[35],no
same,Efficacy,[36],no
same,Efficacy,[37],no
same,Efficacy,[38],no
same,Efficacy,[39],no
same,Efficacy,[40],no
same,Efficacy,[41],no
same,Efficacy,[42],no
same,Efficacy,[43],no
same,Efficacy,[44],no
same,Efficacy,[45],no
same,Efficacy,[46],no
same,Efficacy,[47],no
same,Efficacy,[48],no
same,Efficacy,[49],no
same,Efficacy,[50],no
same,Efficacy,[51],no
same,Efficacy,[52],no
same,Efficacy,[53],no
same,Efficacy,[54],no
same,Efficacy,[55],no
same,Efficacy,[56],no
same,Efficacy,[57],no
same,Efficacy,[58],no
same,Efficacy,[59],no
same,Efficacy,[60],no
same,Efficacy,[61],yes
same,Efficacy,[62],yes
same,Efficacy,[63],yes
same,Efficacy,[64],yes
same,Efficacy,[65],"yes, not VRE"
same,Efficacy,[66],yes
same,Efficacy,[67],yes
same,Efficacy,[68],yes
same,Efficacy,[69],yes
same,Efficacy,[70],yes
same,Efficacy,[71],yes
same,Efficacy,[72],yes
same,Efficacy,[73],yes
"C[C@@H](c1ncncc1F)[C@](O)(Cn1cncn1)c1ccc(F)cc1F [Voriconazole, voriconazole]",Efficacy,[1],yes
same,Efficacy,[2],yes
same,Efficacy,[3],yes
same,Efficacy,[4],yes
same,Efficacy,[6],yes
same,Efficacy,[74],yes
same,Efficacy,[75],yes
